{"source": "BindingDB's records for doi:10.1016/S0960-894X(01)80380-2", "about": "(1994)", "note": "pIC50: −log10 of the molar value.", "data": [{"experiment": "Inhibition of ADP-mediated platelet aggregation in human gel-filtered platelets", "values": [{"molecule": "O=C(O)CCN1Cc2ccc(C(=O)NCCC3CCNCC3)cc2C1=O", "note": "[3-[1-Oxo-6-(2-piperidin-4-yl-ethylcarbamoyl)-1,3-dihydro-isoindol-2-yl]-propionic acid]", "pIC50": 5.00}, {"molecule": "O=C(O)CCNC(=O)c1cccc(C(=O)NCCC2CCNCC2)c1", "note": "[3-[3-(2-Piperidin-4-yl-ethylcarbamoyl)-benzoylamino]-propionic acid]", "pIC50": 6.28}, {"molecule": "O=C(O)CCNC(=O)c1ccnc(C(=O)NCCC2CCNCC2)c1", "note": "[3-{[2-(2-Piperidin-4-yl-ethylcarbamoyl)-pyridine-4-carbonyl]-amino}-propionic acid]", "pIC50": 5.80}, {"molecule": "O=C(O)CCNC(=O)c1cc(C(=O)NCCC2CCNCC2)ccn1", "note": "[3-{[4-(2-Piperidin-4-yl-ethylcarbamoyl)-pyridine-2-carbonyl]-amino}-propionic acid]", "pIC50": 5.96}, {"molecule": "O=C(O)CCNC(=O)c1cncc(C(=O)NCCC2CCNCC2)c1", "note": "[3-{[5-(2-Piperidin-4-yl-ethylcarbamoyl)-pyridine-3-carbonyl]-amino}-propionic acid]", "pIC50": 5.70}, {"molecule": "O=C(O)CCNC(=O)c1cccc(C(=O)NCCC2CCNCC2)n1", "note": "[3-{[6-(2-Piperidin-4-yl-ethylcarbamoyl)-pyridine-2-carbonyl]-amino}-propionic acid]", "pIC50": 3.52}]}]}
